Assays:
TYK2 = TYK2 (Homo sapiens (Human), UniProt P29597); assay: JAK kinase assay (HTRF), TYK2; assay type: biochemical; details: catalytic domain (aa 871-1187), GST-tag, ATP at Km (13 μM)
Experimental: (§1) Human baculovirus-expressed JAK1, 2, 3 and TYK2 were purchased from Carna Biosciences, Inc. All four purified enzymes contain only the catalytic domain. JAK1 (aa 850-1154) and TYK2 (aa 871-1187) are expressed with an N-terminally fused GST-tag, and JAK2 and JAK3 with an N-terminally fused His-tag.
(§2) Inhibition of phosphorylation of a synthetic peptide was measured in an HTRF-based assay using the TK substrate-Biotin from the Cisbio HTRFKinEASE TK kit. First, 2 μl of TK solution (TK substrate-biotin in kinase buffer [1× enzymatic buffer from HTRFKinEASE TK kit, 1 mM DTT]) is added to a plate containing 1 μl prediluted compound (final assay concentration DMSO: 0.75%). Then, 5 μl kinase-ATP mix (prepared in kinase buffer) is added to the wells and the plates are incubated at RT for 20-30 min. For all four kinases a concentration of ATP that corresponded to the Km for ATP was used. The final concentrations of buffers, substrate, kinase and ATP were: JAK1: 50 mM Hepes buffer pH 7.0, 0.01% BSA, 10 mM MgCl2, 1 mM DTT, 7 μM ATP, 50 nM SEB, 1 μM TK Substrate-Biotin and 5 ng JAK1; JAK2: 50 mM Hepes buffer pH 7.0, 0.01% BSA, 5 mM MgCl2, 1 mM DTT, 4 μM ATP, 1 μM TK Substrate-Biotin and 0.1 ng JAK2; JAK3: 50 mM Hepes buffer pH 7.0, 0.01% BSA, 5 mM MgCl2, 1 mM DTT, 2 μM ATP, 1 μM TK Substrate-Biotin and 0.3 ng JAK3; TYK2: 50 mM Hepes buffer pH 7.0, 0.01% BSA, 5 mM MgCl2, 1 mM DTT, 13 μM ATP, 50 nM SEB, 1 μM TK Substrate-Biotin and 0.8 ng TYK2. Thereafter, the kinase reaction is stopped by adding 4 μl detection mix (final concentrations: 50 mM Hepes buffer pH 7.0, 0.01% BSA, 0.8 M KF, 20 mM EDTA, 42 nM Streptavidin-XL665 and 1:400 STK Ab Cryptate) and the plates are incubated overnight in the dark. The HTRF signal is read using an Envision plate reader.

JAK2 = JAK2 (Homo sapiens (Human), UniProt O60674); assay: JAK kinase assay (HTRF), JAK2; assay type: biochemical; details: catalytic domain, His-tag, ATP at Km (4 μM)
Experimental: as §1, §2

JAK3 = JAK3 (Homo sapiens (Human), UniProt P52333); assay: JAK kinase assay (HTRF), JAK3; assay type: biochemical; details: catalytic domain, His-tag, ATP at Km (2 μM)
Experimental: as §1, §2

[1] = in vitro metabolic stability in human liver microsomes; assay type: in vitro ADME; details: human, liver microsomes, compound 0.5 μM, human liver microsomes 0.5 mg/mL, NADPH, 40 min, 37° C.; read-out: Human liver microsome Clapp (apparent intrinsic clearance)
Experimental: To assess the in vitro metabolic stability, the compounds (0.5 μM) were incubated in duplicates with human liver microsomes (0.5 mg/mL) in phosphate buffer and NADPH, in 96-well plates for 40 min (37° C.), using a liquid handling robot (Hamilton Microlab Star). Sample aliquots were taken at 0, 5, 10, 20 and 40 min, and dispensed into cold acetonitrile, in order to stop the reactions. The plates were centrifuged for 30 minutes before the samples were analyzed using liquid chromatography coupled to a time-of-flight mass spectrometer (AB Sciex API5600). The compound depletion over time was used to estimate the elimination rate constant, from which the apparent intrinsic clearance, Clapp, was calculated and the values are listed in table 2.

JAK1 = JAK1 (Homo sapiens (Human), UniProt P23458); assay: JAK kinase assay (HTRF), JAK1; assay type: biochemical; details: catalytic domain (aa 850-1154), GST-tag, ATP at Km (7 μM)
Experimental: as §1, §2

TYK2, sequence (P29597 871-1187): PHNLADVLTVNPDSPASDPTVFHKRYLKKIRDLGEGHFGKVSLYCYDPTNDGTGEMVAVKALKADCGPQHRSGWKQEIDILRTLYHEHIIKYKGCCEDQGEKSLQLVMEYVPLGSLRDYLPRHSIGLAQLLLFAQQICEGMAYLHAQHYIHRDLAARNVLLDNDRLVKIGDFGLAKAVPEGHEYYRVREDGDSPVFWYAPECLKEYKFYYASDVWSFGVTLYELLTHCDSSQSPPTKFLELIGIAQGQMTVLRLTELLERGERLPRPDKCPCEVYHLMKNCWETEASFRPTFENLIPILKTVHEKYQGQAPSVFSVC
JAK2, sequence (O60674 849-1124): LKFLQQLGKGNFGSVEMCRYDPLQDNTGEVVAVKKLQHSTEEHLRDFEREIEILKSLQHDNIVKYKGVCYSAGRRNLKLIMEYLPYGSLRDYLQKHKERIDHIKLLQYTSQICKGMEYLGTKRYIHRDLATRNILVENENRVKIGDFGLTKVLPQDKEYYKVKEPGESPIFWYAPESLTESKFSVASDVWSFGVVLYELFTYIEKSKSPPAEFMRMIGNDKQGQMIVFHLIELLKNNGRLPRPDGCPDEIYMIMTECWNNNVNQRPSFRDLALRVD
JAK1, sequence (P23458 850-1154): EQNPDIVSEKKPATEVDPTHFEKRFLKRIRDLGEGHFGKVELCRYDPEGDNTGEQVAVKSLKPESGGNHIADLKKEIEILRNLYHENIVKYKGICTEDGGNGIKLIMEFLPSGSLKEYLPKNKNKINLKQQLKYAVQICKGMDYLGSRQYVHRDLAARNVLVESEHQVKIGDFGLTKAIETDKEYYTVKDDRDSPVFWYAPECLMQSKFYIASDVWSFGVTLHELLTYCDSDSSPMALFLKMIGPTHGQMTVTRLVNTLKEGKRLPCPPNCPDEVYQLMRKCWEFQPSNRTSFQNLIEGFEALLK
JAK3, sequence (P52333 822-1111): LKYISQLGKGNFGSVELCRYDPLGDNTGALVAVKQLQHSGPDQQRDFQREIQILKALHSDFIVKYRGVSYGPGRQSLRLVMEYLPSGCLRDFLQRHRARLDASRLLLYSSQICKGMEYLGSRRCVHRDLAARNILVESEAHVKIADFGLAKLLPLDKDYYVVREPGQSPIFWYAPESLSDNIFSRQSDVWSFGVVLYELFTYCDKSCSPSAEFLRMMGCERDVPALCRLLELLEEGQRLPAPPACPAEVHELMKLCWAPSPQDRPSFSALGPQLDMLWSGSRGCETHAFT

SMILES | EC50 (TYK2) [nM] | EC50 (JAK2) [nM] | EC50 (JAK3) [nM] | CLint scaled at 0.5 μM [1] [mL/min/kg] | EC50 (JAK1) [nM]
CC[C@@]12CN(c3ncnc4[nH]ccc34)CC[C@@H]1CCN(S(N)(=O)=O)C2 (relative stereo) [Example 17, (4aR*,8aS*)-8a-ethyl-7-(7H-pyrrolo[2,3-d]pyrimidin-4-yl)-3,4,4a,5,6,8-hexahydro-1H-2,7-naphthyridine-2-sulfonamide] | 45 | 7 | 3 | 197 | 2
CC[C@]12CN(c3nnc(Br)s3)CC[C@H]1CCN(c1ncnc3[nH]ccc13)C2 (relative stereo) [Example 20, 2-[(4aR*,8aS*)-8a-ethyl-7-(7H-pyrrolo[2,3-d]pyrimidin-4-yl)-3,4,4a,5,6,8-hexahydro-1H-2,7-naphthyridin-2-yl]-5-bromo-1,3,4-thiadiazole] | 269 | 17 | 5 | 200 | 4
C[C@]12CN(C#N)C[C@H]1CCN(c1ncnc3[nH]ccc13)C2 [Example 29, (3aS,7aS)-3a-methyl-5-(7H-pyrrolo[2,3-d]pyrimidin-4-yl)-1,3,4,6,7,7a-hexahydropyrrolo[3,4-c]pyridine-2-carbonitrile] | 123 | 35 | 118 | 10 | 10
C[C@@]12CN(C#N)CC[C@@H]1CCN(c1ncnc3[nH]ccc13)C2 [Example 3, (4aS,8aR)-8a-methyl-7-(7H-pyrrolo[2,3-d]pyrimidin-4-yl)-3,4,4a,5,6,8-hexahydro-1H-2,7-naphthyridine-2-carbonitrile] | 1480 | 428 | 924 | 60 | 237
CC12CN(c3ccc(C#N)cn3)C[C@@H]1CCN(c1ncnc3[nH]ccc13)C2 (stereo in doubt) [Example 34, 6-[(3aR,7aR)-3a-methyl-5-(7H-pyrrolo[2,3-d]pyrimidin-4-yl)-1,3,4,6,7,7a-hexahydropyrrolo[3,4-c]pyridin-2-yl]pyridine-3-carbonitrile] | 7010 | 927 | 1170 | 136 | 192
Cc1cc(N2CC[C@H]3CCN(c4ncnc5[nH]ccc45)C[C@@]3(C)C2)ncc1C#N (racemic) [Example 8, 6-[(4aS*,8aR*)-8a-methyl-7-(7H-pyrrolo[2,3-d]pyrimidin-4-yl)-3,4,4a,5,6,8-hexahydro-1H-2,7-naphthyridin-2-yl]-4-methyl-pyridine-3-carbonitrile] | 2110 | 269 | 21 | 200 | 86
C[C@]12CN(C#N)CC[C@H]1CCN(c1ncnc3[nH]ccc13)C2 [Example 1, (4aR,8aS)-8a-methyl-7-(7H-pyrrolo[2,3-d]pyrimidin-4-yl)-3,4,4a,5,6,8-hexahydro-1H-2,7-naphthyridine-2-carbonitrile] | 13 | 4 | 15 | 54 | 1
C[C@]12CN(c3ccc(C#N)cn3)C[C@H]1CCN(c1ncnc3[nH]ccc13)C2 (racemic) [Example 47] | 159 | 30 | 26 | 133 | 5
C[C@]12CN(c3cnc(C#N)cn3)C[C@H]1CCN(c1ncnc3[nH]ccc13)C2 (racemic) [Example 43] | 232 | 22 | 37 | 55 | 3
